Legend:
[1] = biological target: 5-hydroxytryptamine receptor 2A (Homo sapiens) (UniProt P28223); test: Antagonist activity at 5HT2A receptor (unknown origin) at 10 uM relative to control
[2] = Ratio of drug level in brain to plasma in Sprague-Dawley rat at 10 mg/kg, iv measured at 2 hrs by LC-MS/MS analysis; format: ADME, organism-based; set-up: dose 10 mg/kg, route intravenous; details: read-out: BPR
[3] = biological target: C-X-C chemokine receptor type 4 (Homo sapiens) (UniProt P61073); test: Agonist activity at CXCR4 (unknown origin) at 12.5 uM relative to control
[4] = biological target: 5-hydroxytryptamine receptor 2C (Homo sapiens) (UniProt P28335); test: Antagonist activity at 5HT2C receptor (unknown origin) at 10 uM relative to control
[5] = biological target: Metabotropic glutamate receptor 2 (Homo sapiens) (UniProt Q14416); test: Antagonist activity at mGlu2 receptor (unknown origin) at 10 uM relative to control
[6] = AUClast in Sprague-Dawley rat at 10 mg/kg, po by LC-MS/MS analysis; format: ADME, organism-based; set-up: time 0 - last, dose 10 mg/kg, route oral; details: plasma
[7] = biological target: Muscarinic acetylcholine receptor M1 (Homo sapiens) (UniProt P11229); test: Agonist activity at M1 receptor (unknown origin) at 12.5 uM relative to control
Muscarinic acetylcholine receptor M1 (Homo sapiens), sequence (P11229 whole entry): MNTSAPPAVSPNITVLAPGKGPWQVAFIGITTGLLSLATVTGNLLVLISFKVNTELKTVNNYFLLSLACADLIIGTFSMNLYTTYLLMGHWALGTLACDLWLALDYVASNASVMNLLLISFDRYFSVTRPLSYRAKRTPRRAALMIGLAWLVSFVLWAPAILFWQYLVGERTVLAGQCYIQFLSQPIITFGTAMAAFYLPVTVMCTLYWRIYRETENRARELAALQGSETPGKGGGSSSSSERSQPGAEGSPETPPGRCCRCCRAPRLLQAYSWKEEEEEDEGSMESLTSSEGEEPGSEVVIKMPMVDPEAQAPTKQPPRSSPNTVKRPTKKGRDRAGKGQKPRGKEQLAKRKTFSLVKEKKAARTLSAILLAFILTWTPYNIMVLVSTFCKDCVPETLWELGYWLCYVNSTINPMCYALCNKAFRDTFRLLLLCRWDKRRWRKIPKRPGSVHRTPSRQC

[8] = Plasma concentration in Sprague-Dawley rat at 10 mg/kg, po measured at 8 hrs by LC-MS/MS analysis; format: ADME, organism-based; set-up: dose 10 mg/kg, route oral
[9] = biological target: Delta-type opioid receptor (Homo sapiens) (UniProt P41143); test: Antagonist activity at OPRD1 receptor (unknown origin) at 10 uM relative to control
Delta-type opioid receptor (Homo sapiens), sequence (P41143 whole entry): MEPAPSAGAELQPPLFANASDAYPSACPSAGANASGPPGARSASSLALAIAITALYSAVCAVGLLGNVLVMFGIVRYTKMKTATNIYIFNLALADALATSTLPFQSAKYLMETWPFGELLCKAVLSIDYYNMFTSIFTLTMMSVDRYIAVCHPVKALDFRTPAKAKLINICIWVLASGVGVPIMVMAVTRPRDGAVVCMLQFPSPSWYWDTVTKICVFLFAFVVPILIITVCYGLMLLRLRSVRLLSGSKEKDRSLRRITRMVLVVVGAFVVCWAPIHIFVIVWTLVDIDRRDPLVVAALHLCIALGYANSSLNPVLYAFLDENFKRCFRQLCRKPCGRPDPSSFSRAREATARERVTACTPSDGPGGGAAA

[10] = biological target: Delta-type opioid receptor (Homo sapiens) (UniProt P41143); test: Agonist activity at OPRD1 receptor (unknown origin) at 12.5 uM relative to control
[11] = biological target: T1, Metabotropic glutamate receptor 1 (Homo sapiens, UniProt Q13255); test: Antagonist activity at human mGluR1 expressed in human Chem-3 cells assessed as inhibition of L-glutamate-induced calcium release at 10 uM by calcium-5 reagent-based fluorescence assay relative to control; format: functional, cell-based
Target sequence in this assay (Q13255 19-1194 limits assumed): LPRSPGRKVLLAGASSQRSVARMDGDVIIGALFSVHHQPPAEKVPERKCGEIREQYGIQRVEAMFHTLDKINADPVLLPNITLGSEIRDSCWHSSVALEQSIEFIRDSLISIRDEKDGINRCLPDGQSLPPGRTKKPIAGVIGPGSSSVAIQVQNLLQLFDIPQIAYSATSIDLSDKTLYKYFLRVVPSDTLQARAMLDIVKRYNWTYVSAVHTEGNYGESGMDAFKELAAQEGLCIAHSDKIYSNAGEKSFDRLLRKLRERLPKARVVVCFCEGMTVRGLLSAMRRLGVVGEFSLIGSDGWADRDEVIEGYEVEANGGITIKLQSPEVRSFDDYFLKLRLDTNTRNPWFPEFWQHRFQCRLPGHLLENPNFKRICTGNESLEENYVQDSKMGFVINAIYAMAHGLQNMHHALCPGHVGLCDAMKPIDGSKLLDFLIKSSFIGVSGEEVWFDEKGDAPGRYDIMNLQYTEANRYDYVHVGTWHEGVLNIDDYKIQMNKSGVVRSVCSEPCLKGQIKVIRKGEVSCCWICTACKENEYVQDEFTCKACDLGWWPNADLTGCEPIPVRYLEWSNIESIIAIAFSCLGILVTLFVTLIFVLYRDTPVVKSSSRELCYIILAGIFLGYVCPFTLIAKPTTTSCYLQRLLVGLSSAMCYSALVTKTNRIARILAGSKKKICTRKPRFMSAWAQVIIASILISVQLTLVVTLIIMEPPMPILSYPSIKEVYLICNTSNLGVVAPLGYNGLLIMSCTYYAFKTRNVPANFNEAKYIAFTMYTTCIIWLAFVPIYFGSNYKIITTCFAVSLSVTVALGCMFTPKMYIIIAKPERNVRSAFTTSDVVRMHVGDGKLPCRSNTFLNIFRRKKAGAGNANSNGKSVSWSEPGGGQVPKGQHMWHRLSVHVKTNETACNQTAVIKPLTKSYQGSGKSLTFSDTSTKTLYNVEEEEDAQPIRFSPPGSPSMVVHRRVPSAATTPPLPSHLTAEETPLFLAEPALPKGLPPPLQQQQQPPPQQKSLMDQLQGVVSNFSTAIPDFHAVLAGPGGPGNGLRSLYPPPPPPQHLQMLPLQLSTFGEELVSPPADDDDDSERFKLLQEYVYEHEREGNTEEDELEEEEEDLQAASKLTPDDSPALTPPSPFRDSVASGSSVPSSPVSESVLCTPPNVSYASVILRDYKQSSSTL

[12] = biological target: CYP2C9 (Homo sapiens, UniProt P11712); test: Inhibition of recombinant human CYP2C9 assessed as remaining activity at 10 uM preincubated for 5 mins followed by substrate and NADP addition measured after 20 mins by fluorescence assay relative to control; format: ADME; details: read-out: Activity
[13] = Plasma concentration in Sprague-Dawley rat at 10 mg/kg, iv measured at 2 hrs by LC-MS/MS analysis; format: ADME, organism-based; set-up: dose 10 mg/kg, route intravenous
[14] = biological target: T1, Metabotropic glutamate receptor 1; test: Agonist activity at mGlu1 receptor (unknown origin) at 12.5 uM relative to control
Target sequence in this assay (Q13255 19-1194 limits assumed): as above

[15] = Apparent volume of distribution at steady state in Sprague-Dawley rat at 10 mg/kg, iv by LC-MS/MS analysis; format: ADME, organism-based; set-up: dose 10 mg/kg, route intravenous; details: in vivo, read-out: Vdss(app)
[16] = Bioavailability in Sprague-Dawley rat at 10 mg/kg, iv by LC-MS/MS analysis; format: ADME, organism-based; details: in vivo
[17] = biological target: CYP3A4 (Homo sapiens, UniProt P08684); test: Inhibition of recombinant human CYP3A4 assessed as remaining activity at 10 uM preincubated for 5 mins followed by substrate and NADP addition measured after 20 mins by fluorescence assay relative to control; format: ADME; details: read-out: Activity
CYP3A4, sequence (P08684 whole entry): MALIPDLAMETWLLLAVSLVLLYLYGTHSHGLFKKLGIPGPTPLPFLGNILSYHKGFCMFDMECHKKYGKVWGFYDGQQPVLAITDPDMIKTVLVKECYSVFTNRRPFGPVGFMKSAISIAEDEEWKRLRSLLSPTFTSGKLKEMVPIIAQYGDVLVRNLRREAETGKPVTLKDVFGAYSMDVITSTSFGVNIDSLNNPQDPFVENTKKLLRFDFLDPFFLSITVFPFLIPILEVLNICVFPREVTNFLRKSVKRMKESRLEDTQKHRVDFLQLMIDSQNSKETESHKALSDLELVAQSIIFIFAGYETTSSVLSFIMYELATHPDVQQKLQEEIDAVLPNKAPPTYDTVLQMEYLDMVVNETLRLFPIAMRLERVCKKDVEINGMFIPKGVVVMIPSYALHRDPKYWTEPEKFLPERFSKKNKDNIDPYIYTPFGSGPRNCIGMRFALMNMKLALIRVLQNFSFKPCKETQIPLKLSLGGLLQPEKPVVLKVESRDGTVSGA

[18] = biological target: Muscarinic acetylcholine receptor M5 (Homo sapiens) (UniProt P08912); test: Agonist activity at M5 receptor (unknown origin) at 12.5 uM relative to control
Muscarinic acetylcholine receptor M5 (Homo sapiens), sequence (P08912 whole entry): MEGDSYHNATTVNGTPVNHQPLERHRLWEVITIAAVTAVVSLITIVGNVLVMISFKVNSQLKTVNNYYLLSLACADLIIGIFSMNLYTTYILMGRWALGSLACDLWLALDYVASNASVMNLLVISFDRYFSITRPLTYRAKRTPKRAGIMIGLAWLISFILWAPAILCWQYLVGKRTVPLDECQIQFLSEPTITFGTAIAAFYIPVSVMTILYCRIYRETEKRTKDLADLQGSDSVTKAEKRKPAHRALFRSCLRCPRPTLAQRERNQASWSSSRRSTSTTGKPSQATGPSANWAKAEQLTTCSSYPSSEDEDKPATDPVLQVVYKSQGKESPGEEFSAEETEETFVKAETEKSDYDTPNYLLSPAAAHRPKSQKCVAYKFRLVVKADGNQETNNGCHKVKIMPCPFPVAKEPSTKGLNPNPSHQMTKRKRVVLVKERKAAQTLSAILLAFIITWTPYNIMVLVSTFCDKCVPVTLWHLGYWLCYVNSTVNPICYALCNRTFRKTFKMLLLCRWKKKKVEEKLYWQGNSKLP

[19] = biological target: B2 bradykinin receptor (Homo sapiens) (UniProt P30411); test: Antagonist activity at BDKR2 (unknown origin) at 10 uM relative to control
B2 bradykinin receptor (Homo sapiens), sequence (P30411 whole entry): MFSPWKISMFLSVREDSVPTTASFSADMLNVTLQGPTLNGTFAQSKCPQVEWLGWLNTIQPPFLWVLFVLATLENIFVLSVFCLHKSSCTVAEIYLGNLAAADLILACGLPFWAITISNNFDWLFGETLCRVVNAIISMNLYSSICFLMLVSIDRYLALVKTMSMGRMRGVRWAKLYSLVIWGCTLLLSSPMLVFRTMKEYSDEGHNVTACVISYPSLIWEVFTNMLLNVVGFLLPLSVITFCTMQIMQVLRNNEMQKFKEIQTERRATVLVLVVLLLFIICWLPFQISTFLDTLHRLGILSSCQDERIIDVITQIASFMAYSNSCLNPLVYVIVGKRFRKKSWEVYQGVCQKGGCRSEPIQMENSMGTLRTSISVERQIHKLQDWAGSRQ

[20] = Plasma concentration in Sprague-Dawley rat at 10 mg/kg, iv measured at 8 hrs by LC-MS/MS analysis; format: ADME, organism-based; set-up: dose 10 mg/kg, route intravenous
[21] = biological target: C-X-C chemokine receptor type 2 (Homo sapiens) (UniProt P25025); test: Antagonist activity at CXCR2 (unknown origin) at 10 uM relative to control
C-X-C chemokine receptor type 2 (Homo sapiens), sequence (P25025 whole entry): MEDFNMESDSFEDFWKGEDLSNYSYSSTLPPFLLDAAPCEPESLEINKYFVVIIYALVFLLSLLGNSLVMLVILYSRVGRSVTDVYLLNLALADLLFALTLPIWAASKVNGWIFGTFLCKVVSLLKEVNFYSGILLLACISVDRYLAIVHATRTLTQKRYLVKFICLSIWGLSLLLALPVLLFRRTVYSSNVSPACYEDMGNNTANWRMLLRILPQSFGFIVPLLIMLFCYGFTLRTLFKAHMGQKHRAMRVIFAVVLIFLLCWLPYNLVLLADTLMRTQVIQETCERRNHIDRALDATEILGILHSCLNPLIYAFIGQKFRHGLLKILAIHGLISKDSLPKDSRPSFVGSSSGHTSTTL

[22] = AUC (0 to infinity) in Sprague-Dawley rat at 10 mg/kg, iv by LC-MS/MS analysis; format: ADME, organism-based; set-up: time infinity, dose 10 mg/kg, route intravenous; details: plasma
[23] = biological target: Alpha-1A adrenergic receptor (Homo sapiens) (UniProt P35348); test: Agonist activity at ADRA1A (unknown origin) at 12.5 uM relative to control
Alpha-1A adrenergic receptor (Homo sapiens), sequence (P35348 whole entry): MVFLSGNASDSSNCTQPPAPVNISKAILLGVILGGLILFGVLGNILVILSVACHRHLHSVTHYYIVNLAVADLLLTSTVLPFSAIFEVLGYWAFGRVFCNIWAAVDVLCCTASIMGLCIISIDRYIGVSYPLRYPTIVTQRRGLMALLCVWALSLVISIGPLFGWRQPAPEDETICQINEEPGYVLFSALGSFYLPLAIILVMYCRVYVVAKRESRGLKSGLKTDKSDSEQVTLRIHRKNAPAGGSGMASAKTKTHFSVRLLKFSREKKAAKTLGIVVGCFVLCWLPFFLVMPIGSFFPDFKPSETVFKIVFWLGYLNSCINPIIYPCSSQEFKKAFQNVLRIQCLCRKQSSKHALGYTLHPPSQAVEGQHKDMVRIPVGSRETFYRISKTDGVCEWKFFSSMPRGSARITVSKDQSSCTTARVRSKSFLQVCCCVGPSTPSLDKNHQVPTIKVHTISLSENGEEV

[24] = biological target: C-X-C chemokine receptor type 5 (Homo sapiens) (UniProt P32302); test: Antagonist activity at CXCR5 (unknown origin) at 10 uM relative to control
[25] = biological target: T1, Metabotropic glutamate receptor 1; test: Antagonist activity at human mGluR1 expressed in human Chem-3 cells assessed as inhibition of L-glutamate-induced calcium release by calcium-5 reagent-based fluorescence assay; format: functional, cell-based
[26] = biological target: C-C chemokine receptor type 5 (Homo sapiens) (UniProt P51681); test: Agonist activity at CCR5 (unknown origin) at 12.5 uM relative to control
C-C chemokine receptor type 5 (Homo sapiens), sequence (P51681 whole entry, looked up): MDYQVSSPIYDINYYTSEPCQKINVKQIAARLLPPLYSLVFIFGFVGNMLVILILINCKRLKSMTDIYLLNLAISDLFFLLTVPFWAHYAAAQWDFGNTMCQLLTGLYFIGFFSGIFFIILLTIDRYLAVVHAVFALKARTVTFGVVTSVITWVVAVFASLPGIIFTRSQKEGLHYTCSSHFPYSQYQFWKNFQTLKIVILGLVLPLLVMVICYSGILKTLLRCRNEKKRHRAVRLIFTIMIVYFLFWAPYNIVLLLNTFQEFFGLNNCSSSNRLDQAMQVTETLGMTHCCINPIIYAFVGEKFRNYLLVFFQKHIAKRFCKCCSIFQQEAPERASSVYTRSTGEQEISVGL

[27] = Terminal half life in Sprague-Dawley rat at 10 mg/kg, po by LC-MS/MS analysis; format: ADME, organism-based; set-up: dose 10 mg/kg, route oral; details: in vivo, read-out: beta t1/2
[28] = Ratio of drug level in brain to plasma in Sprague-Dawley rat at 10 mg/kg, po measured at 2 hrs by LC-MS/MS analysis; format: ADME, organism-based; set-up: dose 10 mg/kg, route oral; details: read-out: BPR
[29] = Metabolic stability in human liver microsomes assessed as compound remaining at 1 uM after 30 mins by LC-MS/MS analysis in presence of NADPH; format: ADME; details: read-out: Stability
[30] = biological target: Cannabinoid receptor 1 (Homo sapiens) (UniProt P21554); test: Antagonist activity at CB1 receptor (unknown origin) at 10 uM relative to control
[31] = Terminal half life in Sprague-Dawley rat at 10 mg/kg, iv by LC-MS/MS analysis; format: ADME, organism-based; set-up: dose 10 mg/kg, route intravenous; details: in vivo, read-out: beta t1/2

- inhibition [1]: 36.2%
- Kp at 2 h [2]: 0.14
- Activity [3]: -3.1%
- inhibition [4]: -9.4%
- inhibition [5]: 5.8%
- AUC(0-t) [6]: 4090 ng·h/mL
- Activity [7]: -0.5%
- concentration at 8 h [8]: 70 ng/mL
- inhibition [9]: 3.8%
- Activity [10]: 1.5%
- inhibition [11]: 71.2%
- activity at 20 min, 10 µM [12]: 6.77%
- concentration at 2 h [13]: 1240 ng/mL
- Activity [14]: -0.2%
- Vd [15]: 1.66 L/kg
- bioavailability [16]: 45.8%
- activity at 20 min, 10 µM [17]: 20.5%
- Activity [18]: 0.9%
- inhibition [19]: 10.3%
- concentration at 8 h [20]: 80 ng/mL
- inhibition [21]: -4.6%
- AUC(0-inf) [22]: 9270 ng·h/mL
- Activity [23]: 0.3%
- inhibition [24]: 4.5%
- IC50 [25]: 1420 nM
- Activity [26]: -0.6%
- half-life [27]: 1.48 h
- Kp at 2 h [28]: 0.13
- remaining at 0.5 h, 1 µM [29]: 77.6%
- inhibition [30]: -2.8%
- half-life [31]: 1.83 h
SMILES: Cc1cc(C(=O)N2CCc3c(sc(NCc4ccccc4)c3C#N)C2)[nH]n1
